Source: PubChem BioAssay AID2060900 (Molecular Pharmacology Branch, DTP, NCI, 2025)

Test system: 521955-158-R2-J5-PDC complex spheroids, viability
Experiment: Anticancer human tumor 521955-158-R2-J5-PDC patient-derived pancreatic carcinoma cell line growth inhibition [RAS]
Settings: for IC50: curve of first compound; for viability, T/C: stronger effect = lower value
In short: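 Tumour cells grown as complex spheroids with HUVEC endothelial cells and mesenchymal stem cells, treated with RAS pathway inhibitor combinations. Each agent spans half-log steps from near clinical Cmax, or 10 microM where Cmax is unknown.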

[1] = second compound 0.000949 µM, first compound 0.000949 µM
[2] = second compound 0.000949 µM, first compound 0.003 µM
[3] = second compound 0.000949 µM, first compound 0.00949 µM
[4] = second compound 0.000949 µM, first compound 0.03 µM
[5] = second compound 0.000949 µM, first compound 0.0949 µM
[6] = second compound 0.000949 µM, first compound 0.3 µM
[7] = second compound 0.003 µM, first compound 0.000949 µM
[8] = second compound 0.003 µM, first compound 0.003 µM
[9] = second compound 0.003 µM, first compound 0.00949 µM
[10] = second compound 0.003 µM, first compound 0.03 µM
[11] = second compound 0.003 µM, first compound 0.0949 µM
[12] = second compound 0.003 µM, first compound 0.3 µM
[13] = second compound 0.00949 µM, first compound 0.000949 µM
[14] = second compound 0.00949 µM, first compound 0.003 µM
[15] = second compound 0.00949 µM, first compound 0.00949 µM
[16] = second compound 0.00949 µM, first compound 0.03 µM
[17] = second compound 0.00949 µM, first compound 0.0949 µM
[18] = second compound 0.00949 µM, first compound 0.3 µM
[19] = second compound 0.03 µM, first compound 0.000949 µM
[20] = second compound 0.03 µM, first compound 0.003 µM
[21] = second compound 0.03 µM, first compound 0.00949 µM
[22] = second compound 0.03 µM, first compound 0.03 µM
[23] = second compound 0.03 µM, first compound 0.0949 µM
[24] = second compound 0.03 µM, first compound 0.3 µM
[25] = second compound 0.0949 µM, first compound 0.000949 µM
[26] = second compound 0.0949 µM, first compound 0.003 µM
[27] = second compound 0.0949 µM, first compound 0.00949 µM
[28] = second compound 0.0949 µM, first compound 0.03 µM
[29] = second compound 0.0949 µM, first compound 0.0949 µM
[30] = second compound 0.0949 µM, first compound 0.3 µM
[31] = second compound 0.3 µM, first compound 0.000949 µM
[32] = second compound 0.3 µM, first compound 0.003 µM
[33] = second compound 0.3 µM, first compound 0.00949 µM
[34] = second compound 0.3 µM, first compound 0.03 µM
[35] = second compound 0.3 µM, first compound 0.0949 µM
[36] = second compound 0.3 µM, first compound 0.3 µM
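Also: compound exposure lasted seven days before the viability read.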
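For viability, T/C in this document: spheroids also contain HUVEC endothelial cells and mesenchymal stem cells as stroma.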

Work on C=CC(=O)N1CCN(c2nc(OCC3CCCN3C)nc3c(F)c(-c4nc(N)cc(C)c4C(F)(F)F)c(Cl)cc23)C(C)C1 (stereo unspecified) + CCn1c(-c2cccnc2C(C)OC)c2c3cc(ccc31)N1CCOC(CC(NC(=O)C(C(C)C)N(C)C(=O)C3(F)CCN(C(=O)C#CC(C)(C)N(C)C)CC3)C(=O)N3CCCC(N3)C(=O)OCC(C)(C)C2)C1 yielded an IC50 (second compound 0.000949 µM) of over 1000 nM, an IC50 (second compound 0.003 µM) of over 1000 nM and an IC50 (second compound 0.00949 µM) of over 1000 nM. The IC50 (second compound 0.03 µM) was over 1000 nM, the IC50 (second compound 0.0949 µM) was over 1000 nM and the IC50 (second compound 0.3 µM) was over 1000 nM. It also gave a viability, T/C (second compound 0.000949 µM, first compound 0.00316 µM) of 100%, a viability, T/C (second compound 0.000949 µM, first compound 0.01 µM) of 104% and a viability, T/C (second compound 0.000949 µM, first compound 0.0316 µM) of 104%. It also gave a viability, T/C (second compound 0.000949 µM, first compound 0.1 µM) of 103%, a viability, T/C (second compound 0.000949 µM, first compound 0.316 µM) of 99.1% and a viability, T/C (second compound 0.000949 µM, first compound 1 µM) of 92.7%. It also gave a viability, T/C (second compound 0.003 µM, first compound 0.00316 µM) of 93.2%, a viability, T/C (second compound 0.003 µM, first compound 0.01 µM) of 88.3% and a viability, T/C (second compound 0.003 µM, first compound 0.0316 µM) of 107%. It also gave a viability, T/C (second compound 0.003 µM, first compound 0.1 µM) of 113%, a viability, T/C (second compound 0.003 µM, first compound 0.316 µM) of 86.5% and a viability, T/C (second compound 0.003 µM, first compound 1 µM) of 94.7%. It also gave a viability, T/C (second compound 0.00949 µM, first compound 0.00316 µM) of 97.7%, a viability, T/C (second compound 0.00949 µM, first compound 0.01 µM) of 111% and a viability, T/C (second compound 0.00949 µM, first compound 0.0316 µM) of 109%. For the same compound, the viability, T/C (second compound 0.00949 µM, first compound 0.1 µM) was 115%, the viability, T/C (second compound 0.00949 µM, first compound 0.316 µM) was 97.9% and the viability, T/C (second compound 0.00949 µM, first compound 1 µM) was 97.7%. It also gave a viability, T/C (second compound 0.03 µM, first compound 0.00316 µM) of 99.3%, a viability, T/C (second compound 0.03 µM, first compound 0.01 µM) of 92.8% and a viability, T/C (second compound 0.03 µM, first compound 0.0316 µM) of 97.7%. The viability, T/C (second compound 0.03 µM, first compound 0.1 µM) was 95.8%, the viability, T/C (second compound 0.03 µM, first compound 0.316 µM) was 95.2% and the viability, T/C (second compound 0.03 µM, first compound 1 µM) was 91.9%. It also gave a viability, T/C (second compound 0.0949 µM, first compound 0.00316 µM) of 88.5%, a viability, T/C (second compound 0.0949 µM, first compound 0.01 µM) of 86.8% and a viability, T/C (second compound 0.0949 µM, first compound 0.0316 µM) of 104%. For the same compound, the viability, T/C (second compound 0.0949 µM, first compound 0.1 µM) was 96.4%, the viability, T/C (second compound 0.0949 µM, first compound 0.316 µM) was 98.1% and the viability, T/C (second compound 0.0949 µM, first compound 1 µM) was 74.4%. It also gave a viability, T/C (second compound 0.3 µM, first compound 0.00316 µM) of 80%, a viability, T/C (second compound 0.3 µM, first compound 0.01 µM) of 78.2% and a viability, T/C (second compound 0.3 µM, first compound 0.0316 µM) of 90.1%. The viability, T/C (second compound 0.3 µM, first compound 0.1 µM) was 69.1%, the viability, T/C (second compound 0.3 µM, first compound 0.316 µM) was 89.4% and the viability, T/C (second compound 0.3 µM, first compound 1 µM) was 79.7%.
CC1(C)CCC(Nc2ncc(C(F)(F)F)c(-c3c[nH]c4c(P(C)(C)=O)c(C#N)ccc34)n2)CN1 (stereo unspecified) + CCn1c(-c2cccnc2C(C)OC)c2c3cc(ccc31)N1CCOC(CC(NC(=O)C(C(C)C)N(C)C(=O)C3(F)CCN(C(=O)C#CC(C)(C)N(C)C)CC3)C(=O)N3CCCC(N3)C(=O)OCC(C)(C)C2)C1 was tested, and the IC50 (second compound 0.000949 µM) was 7.81 nM, the IC50 (second compound 0.003 µM) was 8.8 nM and the IC50 (second compound 0.00949 µM) was 8.56 nM. For the same compound, the IC50 (second compound 0.03 µM) was 6.8 nM, the IC50 (second compound 0.0949 µM) was 7.28 nM and the IC50 (second compound 0.3 µM) was 5.8 nM. For the same compound, the viability, T/C [1] was 88.5%, the viability, T/C [2] was 60.9% and the viability, T/C [3] was 50.1%. The viability, T/C [4] was 39.2%, the viability, T/C [5] was 40.7% and the viability, T/C [6] was 43%. For the same compound, the viability, T/C [7] was 106%, the viability, T/C [8] was 65.2% and the viability, T/C [9] was 49.9%. It also gave a viability, T/C [10] of 44%, a viability, T/C [11] of 39.7% and a viability, T/C [12] of 45.7%. The viability, T/C [13] was 83.2%, the viability, T/C [14] was 62.5% and the viability, T/C [15] was 52%. It also gave a viability, T/C [16] of 36.2%, a viability, T/C [17] of 42.5% and a viability, T/C [18] of 54.1%. The viability, T/C [19] was 90.5%, the viability, T/C [20] was 68.7% and the viability, T/C [21] was 40.9%. It also gave a viability, T/C [22] of 38.4%, a viability, T/C [23] of 41.8% and a viability, T/C [24] of 48.4%. It also gave a viability, T/C [25] of 80.8%, a viability, T/C [26] of 66.2% and a viability, T/C [27] of 45.4%. It also gave a viability, T/C [28] of 38.9%, a viability, T/C [29] of 40% and a viability, T/C [30] of 39%. For the same compound, the viability, T/C [31] was 68.2%, the viability, T/C [32] was 65.1% and the viability, T/C [33] was 38.7%. For the same compound, the viability, T/C [34] was 34.2%, the viability, T/C [35] was 38.2% and the viability, T/C [36] was 40.1%.
With CCc1c2c(nc3ccc(O)cc13)-c1cc3c(c(=O)n1C2)COC(=O)[C@]3(O)CC + CCn1c(-c2cccnc2C(C)OC)c2c3cc(ccc31)N1CCOC(CC(NC(=O)C(C(C)C)N(C)C(=O)C3(F)CCN(C(=O)C#CC(C)(C)N(C)C)CC3)C(=O)N3CCCC(N3)C(=O)OCC(C)(C)C2)C1 the IC50 (second compound 0.000949 µM) was 2.25 nM, the IC50 (second compound 0.003 µM) was 2.41 nM and the IC50 (second compound 0.00949 µM) was 2.52 nM. For the same compound, the IC50 (second compound 0.03 µM) was 2.53 nM, the IC50 (second compound 0.0949 µM) was 2.64 nM and the IC50 (second compound 0.3 µM) was 1.7 nM. It also gave a viability, T/C [1] of 97.8%, a viability, T/C [2] of 34.1% and a viability, T/C [3] of 12.3%. It also gave a viability, T/C [4] of 5.82%, a viability, T/C [5] of 6.17% and a viability, T/C [6] of 6.87%. It also gave a viability, T/C [7] of 92.6%, a viability, T/C [8] of 39.6% and a viability, T/C [9] of 16.9%. It also gave a viability, T/C [10] of 5.84%, a viability, T/C [11] of 4.8% and a viability, T/C [12] of 7.45%. It also gave a viability, T/C [13] of 104%, a viability, T/C [14] of 40.5% and a viability, T/C [15] of 14.4%. The viability, T/C [16] was 8.96%, the viability, T/C [17] was 6.33% and the viability, T/C [18] was 7.48%. The viability, T/C [19] was 72.7%, the viability, T/C [20] was 46.1% and the viability, T/C [21] was 11.3%. The viability, T/C [22] was 10%, the viability, T/C [23] was 5.57% and the viability, T/C [24] was 7.99%. For the same compound, the viability, T/C [25] was 101%, the viability, T/C [26] was 43.5% and the viability, T/C [27] was 12.7%. The viability, T/C [28] was 4.87%, the viability, T/C [29] was 7.25% and the viability, T/C [30] was 6.81%. For the same compound, the viability, T/C [31] was 66%, the viability, T/C [32] was 34.3% and the viability, T/C [33] was 10%. The viability, T/C [34] was 5.73%, the viability, T/C [35] was 6.03% and the viability, T/C [36] was 4.48%.
